According to PMC2723765 (Bioorganic & medicinal chemistry, 2009):
Read-outs that look alike come from different tables or passages of the source.

Assays:
[1] = cited from earlier work
[2] = target: CXCR4 (Homo sapiens, UniProt P61073); assay: Transwell migration assay of Jurkat cells towards SDF-1; type: cell-based; settings: SDF-1 in lower wells
[3] = PET studies; type: in vivo, C57BL/6 mice; settings: co-injection with excess (50 μg) non-radioactive 4
[4] = target: CXCR4 (Mus musculus, UniProt P70658); settings: read-out: IC50 of ^64Cu-4 binding to mouse splenocytes; constant amount of ^64Cu-4 and increasing concentrations of non-radioactive 4, 1 h; average of three experiments
Chain of CXCR4 (Mus musculus, UniProt P70658) (P70658 whole entry): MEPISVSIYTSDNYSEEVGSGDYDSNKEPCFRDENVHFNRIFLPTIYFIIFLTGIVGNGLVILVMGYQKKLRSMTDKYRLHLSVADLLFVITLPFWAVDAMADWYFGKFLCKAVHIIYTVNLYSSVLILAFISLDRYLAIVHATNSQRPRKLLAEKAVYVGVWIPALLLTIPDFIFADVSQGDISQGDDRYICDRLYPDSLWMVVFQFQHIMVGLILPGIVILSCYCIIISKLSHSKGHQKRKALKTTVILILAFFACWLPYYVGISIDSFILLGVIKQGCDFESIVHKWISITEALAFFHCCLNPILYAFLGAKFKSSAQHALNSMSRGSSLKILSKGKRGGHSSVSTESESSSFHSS

Chain of CXCR4 (Homo sapiens, UniProt P61073) (P61073 whole entry): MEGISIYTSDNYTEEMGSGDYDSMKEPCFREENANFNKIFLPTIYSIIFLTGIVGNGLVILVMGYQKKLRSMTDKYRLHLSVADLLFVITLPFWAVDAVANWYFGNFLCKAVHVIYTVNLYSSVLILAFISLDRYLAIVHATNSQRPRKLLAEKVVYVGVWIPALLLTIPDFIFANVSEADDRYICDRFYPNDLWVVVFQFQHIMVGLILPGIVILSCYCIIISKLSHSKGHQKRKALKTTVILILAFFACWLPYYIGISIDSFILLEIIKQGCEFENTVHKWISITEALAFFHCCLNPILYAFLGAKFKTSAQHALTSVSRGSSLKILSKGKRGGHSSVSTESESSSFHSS

## ^99Tc- SDF-1: SDF-1 labeled with ^99Tc, imaging agent for myocardial infarction
[1]
  Accumulation in infarcted myocardium: 0.6 % ID/g
  Accumulation in normal myocardium: 0.1 % ID/g

## SDF-1: chemokine stromal cell-derived factor-1, native ligand for CXCR4
[2]
  Lowest concentration that induces maximal migration of Jurkat cells: 100 ng/mL

## CC(=O)[O-].CC(=O)[O-].[64Cu+2].c1cc(CN2CCCNCCNCCCNCC2)ccc1CN1CCCNCCNCCCNCC1 [^64Cu-4, [^64Cu]-1′-{1,4-phenylenebis(methylene)}-bis{1,4,8,11-tetraaza-cyclotetradecane}copper acetate]
[3]
  PET: uptake in spleen and liver after blocking: undetectable levels
[4]
  IC50: 46.9 µM
1 h post i.v. injection
  Uptake in BM: 14 % ID/g
  Uptake in LN: 10 % ID/g
  Uptake in blood: 1.7 % ID/g
  Uptake in kidneys: 10 % ID/g
  Uptake in liver: 41 % ID/g
  Uptake in muscle: 0.3 % ID/g
  Uptake in spleen: 13 % ID/g
2 h post injection
  Accumulation in blood: < 1 % ID/g
  Accumulation in liver: 49 % ID/g
6 h post injection
  Change of accumulation in spleen, LN, liver and BM: slight increase
co-injection of excess (50 μg) non-labeled 4
  Change of accumulation in kidneys: corresponding increase in accumulation
co-injection of excess (50 μg) non-labeled 4, 2 h
  Reduction of accumulation in liver: 79%
co-injection of excess (50 μg) non-labeled 4, 6 h
  Reduction of accumulation in liver: 74%
co-injection of excess (50 μg) non-labeled 4, versus accumulation after 2 or 6 h
  Reduction of accumulation in all immune related organs: 60–80%
